Data reported in patent US7816134B2, “Method of extensive culture of antigen-specific cytotoxic T cells” (Takara Bio Inc., priority 2000, dated 2010).
Like-named read-outs stand apart in the source and are kept apart here.

Tests used:
[1] = system: anti-influenza virus memory CTLs (FluMPA2.1); type: cell-based, human
[2] = system: HLA-A2.1-having EBV transformed B-cells (221A2.1); conditions: for Cytotoxic Activity (%) E/T Ratio 10 / Cytotoxic Activity (%) E/T Ratio 3 / Cytotoxic Activity (%) E/T Ratio 1: FluMPA2.1
[3] = system: HLA-A2.1-having EBV transformed B-cells (221A2.1); conditions: FluMPA2.1
[4] = system: HLA-A2.1-having EBV transformed B-cells (221A2.1); test: Specific cytotoxic activity of MAGE3-specific CTLs after expansion; type: cell-based, human; conditions: for Cytotoxic Activity (%): sample induction +, expansion +
Excerpt: (§1) CTLs prepared in item (1) of Example 2-1 were washed with 5HRPMI, and then made into a suspension having a concentration of 5×10^4 cells/ml. On the other hand, allogenic PBMCs not having HLA-A24 and HLA-A2.1 which were collected in the same manner as in item (1) of Example 1-1 were subjected to X-ray irradiation (3300R), and the cells were washed with the medium and then made into a suspension having a concentration of 5×10^6 cells/ml. These CTLs (2.5×10^4 cells) and allogenic PBMCs (1.25×10^7 cells) were suspended in 10 ml of 5HRPMI, and anti-CD3 antibody (manufactured by Janssen-Kyowa) was further added thereto so as to give a final concentration of 50 ng/ml. The mixture was placed into a flask of 12.5 cm^2 (manufactured by Falcon), and the cells were cultured in a wet-type CO2 incubator at 37° C. for 14 days. […] The expansion ratio (× times ratio) was calculated by dividing the cell count after the expansion by the cell count before the expansion.

[5] = system: HLA-A2.1-having EBV transformed B-cells (221A2.1); test: Cytotoxic activity of anti-tumor-associated antigen(MAGE3)-specific CTLs on the thirty-fifth day after the initiation of induction; conditions: 10 μg/ml
[6] = system: anti-tumor-associated antigen(MAGE3)-specific CTLs; test: Expansion ratio of MAGE3-specific CTLs; type: cell-based, human; conditions: sample 10 μg/ml: induction +, 14 days
Excerpt: as §1

[7] = Example 2-4, sample 10 μg/ml during CTL induction +, during expansion +
[8] = Example 2-6, sample during CTL induction −, during expansion + (10 μg/ml)
[9] = Example 1-3, sample 10 μg/ml during CTL induction +, during culture with IL-2 +, peptide addition +
[10] = Example 1-3, sample 10 μg/ml during CTL induction +, during culture with IL-2 +, peptide addition −
[11] = sample 10 μg/ml during CTL induction and during continuous culture, 10 to 14 days
[12] = Example 2-4, sample 10 μg/ml during CTL induction +, during expansion +, peptide addition +
[13] = Example 2-4, sample 10 μg/ml during CTL induction +, during expansion +, peptide addition −
[14] = Example 2-6, sample during CTL induction −, during expansion + (10 μg/ml), peptide addition +
[15] = Example 2-6, sample during CTL induction −, during expansion + (10 μg/ml), peptide addition −
[16] = Example 1-5, sample during CTL induction −, during culture with IL-2 + (10 μg/ml), peptide addition +
[17] = Example 1-5, sample during CTL induction −, during culture with IL-2 + (10 μg/ml), peptide addition −
[18] = sample 10 μg/ml only during continuous culture
[19] = Example 2-7, sample 10 μg/ml during CTL induction +, during expansion +, peptide addition +
[20] = Example 2-7, sample 10 μg/ml during CTL induction +, during expansion +, peptide addition −
[21] = Example 2-7, sample 10 μg/ml during CTL induction +, during expansion −, peptide addition +
[22] = Example 2-7, sample 10 μg/ml during CTL induction +, during expansion −, peptide addition −

sodium chondroitin sulfate A
Expansion Ratio [1, 7]: × 280
Expansion Ratio [1, 8]: × 383
Cytotoxic Activity (%) E/T Ratio 10 [2, 9]: 75.5%
Cytotoxic Activity (%) E/T Ratio 10 [2, 10]: 21.1%
cytotoxic activity after continuous culture (in words) [2, 11]: continuous culture of CTLs having an antigen-specific cytotoxic activity can be carried out
Cytotoxic Activity (%) E/T Ratio 3 [3, 12]: 56.7%
Cytotoxic Activity (%) E/T Ratio 10 [3, 12]: 89.0%
Cytotoxic Activity (%) E/T Ratio 3 [3, 13]: 0%
Cytotoxic Activity (%) E/T Ratio 10 [3, 13]: 5.3%
Cytotoxic Activity (%) E/T Ratio 1 [3, 14]: 8.0%
Cytotoxic Activity (%) E/T Ratio 3 [3, 14]: 18.7%
Cytotoxic Activity (%) E/T Ratio 10 [3, 14]: 36.6%
Cytotoxic Activity (%) E/T Ratio 30 [3, 14]: 67.6%
Cytotoxic Activity (%) E/T Ratio 1 [3, 15]: 6.3%
Cytotoxic Activity (%) E/T Ratio 3 [3, 15]: 5.6%
Cytotoxic Activity (%) E/T Ratio 10 [3, 15]: 7.5%
Cytotoxic Activity (%) E/T Ratio 30 [3, 15]: 18.8%

Ardeparin sodium [L. M. W. Heparin, reference compound]
Expansion Ratio [1, 7]: × 240
Expansion Ratio [1, 8]: × 353
Expansion Ratio ([1]; Example 2-7, sample 10 μg/ml during CTL induction +, during expansion +): × 243
Expansion Ratio ([1]; Example 2-7, sample 10 μg/ml during CTL induction +, during expansion −): × 253
cytotoxic activity after expansion for 14 days (in words) ([4]; MAGE3-specific CTLs, sample 10 μg/ml during CTL induction and during expansion): specific, high cytotoxic activity
Cytotoxic Activity (%) ([4]; peptide addition +, E/T ratio 3): 65.3%
Cytotoxic Activity (%) ([4]; peptide addition +, E/T ratio 9): 104.8%
Cytotoxic Activity (%) ([4]; peptide addition −, E/T ratio 3): 2.6%
Cytotoxic Activity (%) ([4]; peptide addition −, E/T ratio 9): 3.7%
difference in the cytotoxic activity by the presence or absence of the addition during the induction [5]: almost no difference
Cytotoxic Activity (%) E/T Ratio 3 [2, 9]: 49.0%
Cytotoxic Activity (%) E/T Ratio 10 [2, 9]: 71.7%
Cytotoxic Activity (%) E/T Ratio 3 [2, 10]: 11.7%
Cytotoxic Activity (%) E/T Ratio 10 [2, 10]: 14.2%
Cytotoxic Activity (%) E/T Ratio 10 [2, 16]: 18.3%
Cytotoxic Activity (%) E/T Ratio 10 [2, 17]: 0%
cytotoxic activity after continuous culture (in words) [2, 11]: continuous culture of CTLs having an antigen-specific cytotoxic activity can be carried out
cytotoxic activity after continuous culture (in words) [2, 18]: maintaining an antigen-specific cytotoxic activity
Expansion Ratio [6]: × 433
Cytotoxic Activity (%) E/T Ratio 3 [3, 12]: 56.4%
Cytotoxic Activity (%) E/T Ratio 10 [3, 12]: 92.9%
Cytotoxic Activity (%) E/T Ratio 3 [3, 13]: 5.2%
Cytotoxic Activity (%) E/T Ratio 10 [3, 13]: 19.6%
Cytotoxic Activity (%) E/T Ratio 1 [3, 14]: 11.3%
Cytotoxic Activity (%) E/T Ratio 3 [3, 14]: 22.2%
Cytotoxic Activity (%) E/T Ratio 10 [3, 14]: 43.9%
Cytotoxic Activity (%) E/T Ratio 30 [3, 14]: 71.2%
Cytotoxic Activity (%) E/T Ratio 1 [3, 15]: 1.4%
Cytotoxic Activity (%) E/T Ratio 3 [3, 15]: 0%
Cytotoxic Activity (%) E/T Ratio 10 [3, 15]: 0.6%
Cytotoxic Activity (%) E/T Ratio 30 [3, 15]: 2.5%
Cytotoxic Activity (%) E/T Ratio 1 [3, 19]: 16.3%
Cytotoxic Activity (%) E/T Ratio 3 [3, 19]: 22.7%
Cytotoxic Activity (%) E/T Ratio 10 [3, 19]: 43.9%
Cytotoxic Activity (%) E/T Ratio 30 [3, 19]: 72.8%
Cytotoxic Activity (%) E/T Ratio 1 [3, 20]: 5.6%
Cytotoxic Activity (%) E/T Ratio 3 [3, 20]: 2.5%
Cytotoxic Activity (%) E/T Ratio 10 [3, 20]: 1.1%
Cytotoxic Activity (%) E/T Ratio 30 [3, 20]: 0.9%
Cytotoxic Activity (%) E/T Ratio 1 [3, 21]: 12.5%
Cytotoxic Activity (%) E/T Ratio 3 [3, 21]: 26.9%
Cytotoxic Activity (%) E/T Ratio 10 [3, 21]: 57.8%
Cytotoxic Activity (%) E/T Ratio 30 [3, 21]: 83.7%
Cytotoxic Activity (%) E/T Ratio 1 [3, 22]: 5.2%
Cytotoxic Activity (%) E/T Ratio 3 [3, 22]: 4.5%
Cytotoxic Activity (%) E/T Ratio 10 [3, 22]: 6.6%
Cytotoxic Activity (%) E/T Ratio 30 [3, 22]: 7.0%

non-swellable alginic acid
Expansion Ratio [1, 7]: × 220
Expansion Ratio [1, 8]: × 335
Cytotoxic Activity (%) E/T Ratio 1 [2, 9]: 28.1%
Cytotoxic Activity (%) E/T Ratio 3 [2, 9]: 52.7%
Cytotoxic Activity (%) E/T Ratio 10 [2, 9]: 77.1%
Cytotoxic Activity (%) E/T Ratio 1 [2, 10]: 12.9%
Cytotoxic Activity (%) E/T Ratio 3 [2, 10]: 24.8%
Cytotoxic Activity (%) E/T Ratio 10 [2, 10]: 14.0%
Cytotoxic Activity (%) E/T Ratio 1 [2, 16]: 9.5%
Cytotoxic Activity (%) E/T Ratio 3 [2, 16]: 13.8%
Cytotoxic Activity (%) E/T Ratio 10 [2, 16]: 24.9%
Cytotoxic Activity (%) E/T Ratio 1 [2, 17]: 3.9%
Cytotoxic Activity (%) E/T Ratio 3 [2, 17]: 4.6%
Cytotoxic Activity (%) E/T Ratio 10 [2, 17]: 6.1%
cytotoxic activity after continuous culture (in words) [2, 18]: maintaining an antigen-specific cytotoxic activity
Cytotoxic Activity (%) E/T Ratio 3 [3, 12]: 63.5%
Cytotoxic Activity (%) E/T Ratio 10 [3, 12]: 81.4%
Cytotoxic Activity (%) E/T Ratio 3 [3, 13]: 26.2%
Cytotoxic Activity (%) E/T Ratio 10 [3, 13]: 26.8%
Cytotoxic Activity (%) E/T Ratio 1 [3, 14]: 13.5%
Cytotoxic Activity (%) E/T Ratio 3 [3, 14]: 24.1%
Cytotoxic Activity (%) E/T Ratio 10 [3, 14]: 50.4%
Cytotoxic Activity (%) E/T Ratio 30 [3, 14]: 76.0%
Cytotoxic Activity (%) E/T Ratio 1 [3, 15]: 0.5%
Cytotoxic Activity (%) E/T Ratio 3 [3, 15]: 5.2%
Cytotoxic Activity (%) E/T Ratio 10 [3, 15]: 6.5%
Cytotoxic Activity (%) E/T Ratio 30 [3, 15]: 14.4%
